In the supplement of paper PMC12463676, “Small-molecule dissolution of stress granules by redox modulation benefits ALS models” (Nature Chemical Biology, 2025):

Assays:
[1] = compound: NC(=O)CCCCC1CCSS1 [lipoamide]; assay: thermal stability z-score vs DMSO; higher = more thermally stabilized by treatment; conditions: HeLa, lipoamide concentration 100 µM
Description: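 Cellular thermal proteome profiling in HeLa cells. Cells were treated with 100 µM lipoamide for 1 h, with or without 1 mM arsenate for a further 1 h, then heated to ten temperatures (37-66.3 °C), and soluble protein was quantified by TMT mass spectrometry relative to 0.1% DMSO controls. The thermal stability score (sum of log2 fold changes minus the abundance score) was transformed to a z-score; mean of n = 3 experiments.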

[2] = compound: O=[As]([O-])(O)O.[K+] [potassium arsenate]; assay: as above; conditions: HeLa; arsenate concentration 1 mM
Description: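 Cellular thermal proteome profiling in HeLa cells treated with 1 mM arsenate for 1 h (DMSO pretreatment), heated to ten temperatures (37-66.3 °C). Soluble protein was quantified by TMT mass spectrometry relative to DMSO controls; the thermal stability score was transformed to a z-score; mean of n = 3 experiments.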

[3] = arsenate co-treatment: 1 mM arsenate 1 h
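Note: each temperature applied for 3 min, abundance score taken as mean log2 fold change at the two lowest temperatures, z-score obtained by mean subtraction and division by SD.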

Chain of UniProt P41567 (P41567 whole entry): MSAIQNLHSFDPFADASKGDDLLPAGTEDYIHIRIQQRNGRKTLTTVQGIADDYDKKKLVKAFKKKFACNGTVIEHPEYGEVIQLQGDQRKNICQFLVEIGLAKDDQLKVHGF
Chain of UniProt Q9GZS1 (Q9GZS1 whole entry): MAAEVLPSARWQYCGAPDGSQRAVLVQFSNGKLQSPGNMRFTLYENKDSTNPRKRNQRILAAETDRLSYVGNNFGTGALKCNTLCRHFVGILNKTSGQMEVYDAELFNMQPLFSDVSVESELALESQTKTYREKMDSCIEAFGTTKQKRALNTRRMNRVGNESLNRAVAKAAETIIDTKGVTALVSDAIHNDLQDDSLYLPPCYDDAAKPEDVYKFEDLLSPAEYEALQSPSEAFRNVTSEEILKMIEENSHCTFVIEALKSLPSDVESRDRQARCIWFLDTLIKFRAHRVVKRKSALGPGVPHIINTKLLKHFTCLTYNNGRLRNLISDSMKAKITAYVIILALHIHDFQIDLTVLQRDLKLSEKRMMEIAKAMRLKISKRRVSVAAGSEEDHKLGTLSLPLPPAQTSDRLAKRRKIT
Chain of UniProt O75554 (O75554 whole entry): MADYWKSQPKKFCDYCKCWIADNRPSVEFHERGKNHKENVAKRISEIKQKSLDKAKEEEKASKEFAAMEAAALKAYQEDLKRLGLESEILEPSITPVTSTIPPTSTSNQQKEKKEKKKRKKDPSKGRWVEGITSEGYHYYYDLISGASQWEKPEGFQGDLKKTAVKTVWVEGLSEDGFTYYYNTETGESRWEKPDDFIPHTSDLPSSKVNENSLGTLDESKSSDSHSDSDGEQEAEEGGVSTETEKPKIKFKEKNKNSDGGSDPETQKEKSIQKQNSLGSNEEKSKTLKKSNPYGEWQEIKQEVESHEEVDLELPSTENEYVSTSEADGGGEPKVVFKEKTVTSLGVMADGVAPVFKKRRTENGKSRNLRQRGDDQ
Chain of UniProt Q9NZN8 (Q9NZN8 whole entry): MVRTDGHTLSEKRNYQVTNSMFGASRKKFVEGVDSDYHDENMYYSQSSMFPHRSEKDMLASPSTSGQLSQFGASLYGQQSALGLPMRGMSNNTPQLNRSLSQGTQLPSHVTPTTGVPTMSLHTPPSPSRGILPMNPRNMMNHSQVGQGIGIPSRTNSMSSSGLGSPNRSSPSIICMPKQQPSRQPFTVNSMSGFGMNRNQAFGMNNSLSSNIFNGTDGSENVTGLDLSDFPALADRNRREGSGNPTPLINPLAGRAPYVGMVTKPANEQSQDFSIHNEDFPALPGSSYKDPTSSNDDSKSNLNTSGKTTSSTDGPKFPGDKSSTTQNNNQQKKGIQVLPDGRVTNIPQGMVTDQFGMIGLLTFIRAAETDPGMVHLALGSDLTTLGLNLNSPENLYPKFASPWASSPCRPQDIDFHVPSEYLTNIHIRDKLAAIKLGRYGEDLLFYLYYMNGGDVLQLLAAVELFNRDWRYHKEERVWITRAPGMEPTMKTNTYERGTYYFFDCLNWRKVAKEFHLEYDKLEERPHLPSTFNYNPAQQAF
Chain of UniProt Q9Y4P1 (Q9Y4P1 whole entry): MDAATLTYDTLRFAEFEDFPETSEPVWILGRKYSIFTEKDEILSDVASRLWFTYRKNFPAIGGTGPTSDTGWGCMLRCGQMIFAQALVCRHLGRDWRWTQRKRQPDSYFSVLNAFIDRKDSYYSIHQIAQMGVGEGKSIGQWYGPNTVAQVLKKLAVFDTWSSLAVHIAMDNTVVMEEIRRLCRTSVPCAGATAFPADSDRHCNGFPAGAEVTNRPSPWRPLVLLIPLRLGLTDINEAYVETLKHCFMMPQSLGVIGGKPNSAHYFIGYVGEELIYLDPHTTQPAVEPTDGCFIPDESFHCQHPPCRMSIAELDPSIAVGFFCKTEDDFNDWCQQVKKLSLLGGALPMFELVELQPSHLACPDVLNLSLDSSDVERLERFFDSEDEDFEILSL
Chain of UniProt Q6GYQ0 (Q6GYQ0 whole entry): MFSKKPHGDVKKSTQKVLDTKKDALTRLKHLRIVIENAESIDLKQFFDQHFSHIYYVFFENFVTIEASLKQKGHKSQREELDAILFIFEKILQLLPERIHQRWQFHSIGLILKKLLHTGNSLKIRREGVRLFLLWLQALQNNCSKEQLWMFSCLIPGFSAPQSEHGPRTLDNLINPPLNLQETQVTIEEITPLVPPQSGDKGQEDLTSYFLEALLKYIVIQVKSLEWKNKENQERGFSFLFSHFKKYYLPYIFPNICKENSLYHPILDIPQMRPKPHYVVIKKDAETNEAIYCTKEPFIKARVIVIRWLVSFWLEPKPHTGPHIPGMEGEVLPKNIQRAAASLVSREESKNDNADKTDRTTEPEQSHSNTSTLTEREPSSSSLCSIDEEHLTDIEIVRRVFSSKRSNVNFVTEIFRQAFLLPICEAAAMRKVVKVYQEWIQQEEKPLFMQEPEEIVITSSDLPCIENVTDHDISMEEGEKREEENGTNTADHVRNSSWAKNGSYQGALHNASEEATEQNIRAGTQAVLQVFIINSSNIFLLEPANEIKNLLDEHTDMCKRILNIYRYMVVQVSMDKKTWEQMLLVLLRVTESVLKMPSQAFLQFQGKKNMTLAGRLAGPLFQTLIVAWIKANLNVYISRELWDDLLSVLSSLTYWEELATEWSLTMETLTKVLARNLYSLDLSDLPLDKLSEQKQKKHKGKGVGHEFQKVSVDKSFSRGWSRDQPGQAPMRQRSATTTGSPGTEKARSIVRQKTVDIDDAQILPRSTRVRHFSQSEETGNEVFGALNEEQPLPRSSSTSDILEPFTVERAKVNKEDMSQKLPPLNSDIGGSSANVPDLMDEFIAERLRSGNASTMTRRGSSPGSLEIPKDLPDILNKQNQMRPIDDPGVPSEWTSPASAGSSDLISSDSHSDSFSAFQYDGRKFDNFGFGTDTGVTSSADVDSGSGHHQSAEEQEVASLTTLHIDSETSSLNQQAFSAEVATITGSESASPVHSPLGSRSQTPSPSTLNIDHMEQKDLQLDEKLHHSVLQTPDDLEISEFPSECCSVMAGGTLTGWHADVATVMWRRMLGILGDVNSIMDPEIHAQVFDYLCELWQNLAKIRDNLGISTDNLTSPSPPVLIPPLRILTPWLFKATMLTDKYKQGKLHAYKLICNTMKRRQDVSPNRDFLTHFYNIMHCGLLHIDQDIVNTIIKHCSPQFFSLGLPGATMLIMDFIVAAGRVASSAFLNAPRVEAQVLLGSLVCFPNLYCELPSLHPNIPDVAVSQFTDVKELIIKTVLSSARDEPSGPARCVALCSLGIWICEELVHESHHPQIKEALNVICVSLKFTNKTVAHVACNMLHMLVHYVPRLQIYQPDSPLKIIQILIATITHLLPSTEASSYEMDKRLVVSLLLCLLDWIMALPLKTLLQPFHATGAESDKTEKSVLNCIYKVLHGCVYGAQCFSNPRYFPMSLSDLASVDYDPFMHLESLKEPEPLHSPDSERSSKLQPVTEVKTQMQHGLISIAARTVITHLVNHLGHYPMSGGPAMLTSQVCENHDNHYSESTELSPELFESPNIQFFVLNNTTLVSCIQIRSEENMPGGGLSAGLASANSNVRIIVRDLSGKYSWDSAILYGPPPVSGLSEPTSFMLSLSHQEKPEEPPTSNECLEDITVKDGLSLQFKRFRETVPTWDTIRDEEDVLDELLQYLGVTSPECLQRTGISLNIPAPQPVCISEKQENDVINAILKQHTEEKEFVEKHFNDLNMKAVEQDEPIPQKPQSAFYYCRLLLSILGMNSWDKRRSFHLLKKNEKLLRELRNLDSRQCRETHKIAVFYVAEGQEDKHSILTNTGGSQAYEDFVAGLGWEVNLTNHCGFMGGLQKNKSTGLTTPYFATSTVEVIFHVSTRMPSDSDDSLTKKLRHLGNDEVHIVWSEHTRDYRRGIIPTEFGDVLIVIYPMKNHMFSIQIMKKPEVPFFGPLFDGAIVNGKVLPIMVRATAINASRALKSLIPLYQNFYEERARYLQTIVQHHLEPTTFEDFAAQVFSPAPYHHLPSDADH
Chain of UniProt P13196 (P13196 whole entry): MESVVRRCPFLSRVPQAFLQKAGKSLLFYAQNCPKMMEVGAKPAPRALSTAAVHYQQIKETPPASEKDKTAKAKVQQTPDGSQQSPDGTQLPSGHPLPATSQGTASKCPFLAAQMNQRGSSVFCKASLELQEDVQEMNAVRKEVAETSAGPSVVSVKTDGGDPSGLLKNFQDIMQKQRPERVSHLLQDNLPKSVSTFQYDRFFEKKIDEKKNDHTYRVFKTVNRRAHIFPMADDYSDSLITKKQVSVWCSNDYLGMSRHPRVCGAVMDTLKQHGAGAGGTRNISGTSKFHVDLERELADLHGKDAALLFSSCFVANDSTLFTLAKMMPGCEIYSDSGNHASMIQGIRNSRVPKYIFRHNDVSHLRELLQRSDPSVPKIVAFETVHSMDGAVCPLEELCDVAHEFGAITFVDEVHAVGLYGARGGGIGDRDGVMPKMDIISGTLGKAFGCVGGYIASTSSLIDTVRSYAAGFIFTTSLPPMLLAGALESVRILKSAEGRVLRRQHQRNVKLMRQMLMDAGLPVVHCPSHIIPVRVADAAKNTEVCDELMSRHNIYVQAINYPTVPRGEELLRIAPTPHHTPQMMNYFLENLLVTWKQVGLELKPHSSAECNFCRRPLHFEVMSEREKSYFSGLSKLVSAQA
Chain of UniProt Q99956 (Q99956 whole entry): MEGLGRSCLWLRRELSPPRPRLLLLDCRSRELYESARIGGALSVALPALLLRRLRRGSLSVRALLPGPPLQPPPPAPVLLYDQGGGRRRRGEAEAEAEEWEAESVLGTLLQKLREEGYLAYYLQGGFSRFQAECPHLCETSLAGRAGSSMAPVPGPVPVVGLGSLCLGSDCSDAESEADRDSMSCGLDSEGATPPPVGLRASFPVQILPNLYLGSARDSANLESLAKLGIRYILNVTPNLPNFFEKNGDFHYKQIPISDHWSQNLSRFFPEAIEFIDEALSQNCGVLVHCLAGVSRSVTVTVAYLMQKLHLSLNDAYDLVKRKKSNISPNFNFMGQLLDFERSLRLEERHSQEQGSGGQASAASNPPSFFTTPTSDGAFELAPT

Target	thermal stability z-score [1, 3]	thermal stability z-score ([1]; arsenate co-treatment: none)	thermal stability z-score [2]
NAGLU (UniProt P54802)	0.208	-0.281	0.253
DUSP9 (UniProt Q99956)	0.738	0.0584	0.0461
FTO (UniProt Q9C0B1)	-0.0697	-0.447	1.38
POLR1E (UniProt Q9GZS1)	0.144	0.0221	-0.0491
WBP4 (UniProt O75554)	1.32	0.617	-2.19
TRAPPC3 (UniProt O43617)	0.589	-0.0881	0.422
NOA1 (UniProt Q8NC60)	0.222	0.0658	-0.0924
INTS4 (UniProt Q96HW7)	1.08	1.34	-0.0059
EIF1 (UniProt P41567)	-0.179	-0.0958	-0.193
TMEM68 (UniProt Q96MH6)	0.361	-0.287	-0.552
PAFAH2 (UniProt Q99487)	0.543	-0.499	-0.363
CNOT2 (UniProt Q9NZN8)	-0.563	0.153	1.62
SLC38A2 (UniProt Q96QD8)	0.351	0.272	0.774
RALGAPA1 (UniProt Q6GYQ0)	-0.102	-0.115	-2.14
CYP2S1 (UniProt Q96SQ9)	-1.14	-0.765	-0.647
ARHGDIB (UniProt P52566)	0.0327	-0.0579	0.0843
ERC1 (UniProt Q8IUD2)	-0.3	-0.166	0.574
SLC25A46 (UniProt Q96AG3)	-0.105	0.322	0.109
VPS8 (UniProt Q8N3P4)	-0.0735	-0.283	-0.17
VCP (UniProt P55072)	0.257	0.118	-0.172
ALAS1 (UniProt P13196)	0.0114	-0.0767	-0.0697
NT5DC1 (UniProt Q5TFE4)	0.0662	-0.687	-0.749
OPTN (UniProt Q96CV9)	-0.94	-0.477	1.01
HMGB3 (UniProt O15347)	0.138	0.323	0.0296
MED18 (UniProt Q9BUE0)	-0.0409	0.0953	-0.382
GOLIM4 (UniProt O00461)	-0.589	-0.17	0.283
NME1|NME2	0.455	0.432	0.487
TRAPPC1 (UniProt Q9Y5R8)	0.425	0.512	0.484
ATG4B (UniProt Q9Y4P1)	0.0217	-0.419	-0.73
PARD6B (UniProt Q9BYG5)	0.233	-0.00454	-0.0258
